Laboratory results as given in patent US20260365692A1, “COMPOSITIONS COMPRISING PROTEINS DISSOLVED IN FLUORINATED SOLVENTS, AND METHODS OF MAKING AND USING THE SAME” (priority 2022, published 2026).

Key:
[1] = β-Gal activity after hydrochloric acid exposure; type: physicochemical; conditions: β-Gal in PFOc
Procedure: FIGS. 54A-54C depict the relative activity of the β-Gal protein dispersed in PBS or PFOc solvents without and with contamination by (FIG. 54A) proteinase K, (FIG. 54B) bleach or (FIG. 54C) hydrochloric acid. Data shown as average±s.d. of n=3 technical replicates. Statistical significance between conditions is indicated by a line using unpaired Student's t-test with n.s.=not significant, * p<0.05, ** p<0.01, and *** p<0.001.
Here, stock of lyophilized β-Gal was prepared then dispersed in PBS or PFOc. A small volumetric quantity (1% v/v) of 10% bleach was added to the protein samples. Immediately, an equal volume of PBS containing 4 mg/mL ONPG substrate was added to the sample and incubated for 5 minutes to allow for complete substrate conversion. Last, absorbance was taken at 420 nm on the eluted samples, and relative activity was calculated by normalizing absorbance of converted ONPG in oxidizer-treated samples against their corresponding untreated group. […] Here, stock of lyophilized B-Gal was prepared then dispersed in PBS or PFOc. A small volumetric quantity (4% v/v) of 0.1 M HCl was added to the protein samples. After 30 seconds incubation, PBS containing 4 mg/mL ONPG was added to each of the samples to elute and start substrate conversion. After 3-minute conversion, the eluted samples were retrieved, and absorbance was read at 420 nm. […]

[2] = Acute toxicity in C57BL/6J mice (Example 3); type: in vivo; conditions: 24 h
Procedure: Two groups (n=5) of C57BL/6J mice received […] of 10 μM solutions of β-Gal that was either 1) prepared in sterile PBS or 2) dissolved in PFOc (1 mM PFNA) and extracted into sterile PBS. Due to the large solution volumes given (150 μL, ~15% of mouse blood volume), PFOc dispersed proteins were extracted into sterile saline before injection to avoid hyponatremia. Samples were administered by tail vein injection.
To assess acute toxicity, animals were intravenously administered solutions of β-Gal either prepared in sterile PBS or dissolved in PFOc (1 mM PFNA) and extracted into sterile PBS, as described above. After 24 hours, mice were sacrificed, and blood was collected via cardiac puncture. A minimum of 100 μL of whole blood was added to EDTA for complete blood count. The remainder was centrifuged (1000 rcf, 10 minutes) to isolate serum for chemistry analysis. Tissues (lungs, livers, kidneys, and spleens) from euthanized animals were collected and stored in 10% buffered-formalin immediately after euthanasia. […] from each organ were mounted onto glass slides and stained with Hematoxylin and Eosin (H&E). Four random fields in each section were examined under a microscope at 5× and 40× magnification. Tissue relevant clinical features were compared across samples. […]

β-gal = experiment: Isothermal titration calorimetry, β-Gal; type: binding
Excerpt: (§1) To test this assertion, PFNA binding to three exemplary proteins, BSA, β-Gal and IgG, was studied via isothermal titration calorimetry (ITC) and surface plasmon resonance (SPR) techniques. […] SPR analysis yielded similar results, with sensorgrams (FIGS. 14J-14L) that diverged from a simple 1:1 ligand-protein model. […] Similar phenomenon may explain the negative signals of the SPR data and further support the ability of PFNA to modulate the conformational plasticity of adsorbed proteins.

cells = experiment: Cellular uptake of PFNA-complexed proteins; type: cell-based
Excerpt: Multiplexed in vitro assays were employed to probe the influence of PFNA interactions on protein uptake and transport in cells. A549 and PC9 human lung cells were prioritized for these assays given that pulmonary tissue is a primary site of perfluoroalkyl bioaccumulation in humans (Reference: 63). Before initiating experiments, cellular toxicity assays established a maximum tolerated dose of PFNA to avoid confounding protein transport experiments with substantive cell death. Protein uptake was then studied using green fluorescent protein (GFP) and bovine serum albumin (BSACy5) as model biologics that employ non-specific pinocytic mechanisms for cellular entry.

BSA = BSA (Bos taurus, UniProt P02769); experiment: Isothermal titration calorimetry, BSA; type: binding, bovine
Excerpt: as §1

[3] = target: bovine serum albumin (BSA) (Bos taurus, UniProt P02769); experiment: Circular dichroism with PFNA, BSA
Excerpt: (§2) FIGS. 14A-14L depict circular dichroism spectra of Hb (FIG. 14A), GFP (FIG. 14B), BSA (FIG. 14C), β-Gal (FIG. 14D), rabbit serum IgG (FIG. 14E), transferrin (FIG. 14F), and urease (FIG. 14G) in the absence (black line) or presence (dashed lines) of PFNA. Increasing dash sequence indicated higher concentration of PFNA. FIG. 14H: Change in molar ellipticity at 216 nm (Δθ216) of PFNA-treated proteins, relative to native controls, as a function of increasing ligand concentration. FIG. 14I: Percentage change in secondary structural motifs of Hb, β-Gal and IgG between the native protein and 1 mM PFNA treated samples. β-sheet structures were further differentiated into parallel and antiparallel conformations. Hb, β-Gal and IgG were prioritized for analysis based on their significant spectral shift in the presence of 1 mM PFNA. FIGS. 14J-14L: Sensograms for BSA (FIG. 14J), β-gal (FIG. 14K), and IgG (FIG. 14L) showing relative response (R.U.) at 10, 25, 50, 75, and 100 μM.
(§3) To explore PFNA-mediated changes in protein structure, dose-response circular dichroism (CD) studies were performed (FIG. 14A-14G). […] Remarkably, these structural changes endured even at sub-stoichiometric PFNA:protein ratios (see 0.001 mM PFNA in […]; protein concentration was constant at 0.01 mM).

human hemoglobin (Hb) = human hemoglobin (Hb) (Homo sapiens, UniProt P68871+P69905); experiment: Circular dichroism with PFNA, Hb
Excerpt: as §2, §3

human hemoglobin (Hb), sequence (P69905 whole entry): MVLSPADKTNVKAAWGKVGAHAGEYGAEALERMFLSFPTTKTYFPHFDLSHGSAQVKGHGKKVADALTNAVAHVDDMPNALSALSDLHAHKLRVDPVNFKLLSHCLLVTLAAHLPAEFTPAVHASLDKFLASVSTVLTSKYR
human hemoglobin (Hb), sequence (P68871 whole entry): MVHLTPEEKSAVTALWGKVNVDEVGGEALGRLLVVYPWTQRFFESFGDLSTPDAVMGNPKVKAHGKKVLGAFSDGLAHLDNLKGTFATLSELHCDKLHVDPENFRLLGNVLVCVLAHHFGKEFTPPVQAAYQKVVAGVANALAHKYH
bovine serum albumin (BSA), sequence (P02769 25-607): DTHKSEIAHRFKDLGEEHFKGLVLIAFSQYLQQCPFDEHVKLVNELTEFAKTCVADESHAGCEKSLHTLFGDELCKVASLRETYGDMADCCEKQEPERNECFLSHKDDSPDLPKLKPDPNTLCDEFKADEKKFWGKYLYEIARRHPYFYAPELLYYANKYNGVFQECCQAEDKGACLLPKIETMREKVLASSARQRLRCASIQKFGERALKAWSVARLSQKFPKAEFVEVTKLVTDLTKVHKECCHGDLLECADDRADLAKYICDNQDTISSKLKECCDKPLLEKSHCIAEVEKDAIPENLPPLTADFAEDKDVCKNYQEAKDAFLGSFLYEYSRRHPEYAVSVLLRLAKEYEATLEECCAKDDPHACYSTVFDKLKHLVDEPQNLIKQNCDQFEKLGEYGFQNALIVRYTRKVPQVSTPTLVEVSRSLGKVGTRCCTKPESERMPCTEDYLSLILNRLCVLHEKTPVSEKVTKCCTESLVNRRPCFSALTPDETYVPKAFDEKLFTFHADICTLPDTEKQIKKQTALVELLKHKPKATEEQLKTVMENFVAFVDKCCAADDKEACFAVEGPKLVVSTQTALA
BSA, sequence (P02769 25-607): as above

| Molecule | β-Gal activity versus PBS controls ([1]; HCl) | loss in functionality ([1]; HCl (4% v/v of 0.1 M), few minutes) | BUN, RBC, HGB, HCT versus sham saline injection control ([2]; PFOc β-Gal, i.v.) | histologic organ analyses ([2]; lung, kidney, liver, spleen, β-Gal from PFOc) | evolution of heat (ITC) (β-gal) | cellular uptake of complexed proteins (cells) | evolution of heat (ITC) (BSA) | CD structural profile, BSA [3] | CD structural change, Hb (human hemoglobin (Hb); 0.001-0.1 mM PFNA) | CD structural change, Hb (human hemoglobin (Hb); 1 mM PFNA) |
| --- | --- | --- | --- | --- | --- | --- | --- | --- | --- | --- |
| β-Gal: β-Galactosidase (β-Gal), dissolved in PBS/saline or dispersed in PFOc | statistically higher than that of PBS controls | ≥ 50% | none of these markers were statistically different | did not identify signs of necrosis, cellular infiltration, inflammation, or hemorrhage | – | – | – | – | – | – |
| O=C(O)C(F)(F)C(F)(F)C(F)(F)C(F)(F)C(F)(F)C(F)(F)C(F)(F)C(F)(F)F [Compound 7, perfluoronanonic acid] | – | – | – | – | no significant evolution of heat | significantly enhanced | no significant evolution of heat | remained largely unchanged | induced non-native α-helical structure | slight loss of signal |
